In patent publication US10004701B2, “Methods and compositions for treating infection” (UNIVERSITY OF ROCHESTER, priority 2012, dated 2018):
Counter-ions that a name gives are not always drawn. Like-named read-outs stand apart in the source and are kept apart here.

Columns and labels:
Experiment in all cases: AK assay 384-well format, Prestwick library screening
K. pneumoniae = format: cell-based, Klebsiella pneumoniae; conditions: 50 μM final drug concentration; for fold induction at 50 µM: Klebsiella pneumoniae, 3 h
P. aeruginosa = format: cell-based, Pseudomonas aeruginosa; conditions: 50 μM final drug concentration; for fold induction at 50 µM: Pseudomonas aeruginosa, 3 h
[1] = tested on: A. baumannii strain 98-37-09; format: cell-based, Acinetobacter baumannii; conditions: 50 μM final drug concentration; for fold induction at 50 µM: Acinetobacter baumannii, 983709, 3 h
E. cloacae = format: cell-based, Enterobacter cloacae; conditions: 50 μM final drug concentration; for fold induction at 50 µM: Enterobacter cloacae, 3 h
[2] = tested on: S. aureus strain USA300-0114; format: cell-based, Staphylococcus aureus; conditions: 50 μM final drug concentration; for fold induction at 50 µM: Staphylococcus aureus, USA300, 3 h
E. faecium = format: cell-based, Enterococcus faecium; conditions: 50 μM final drug concentration; for fold induction at 50 µM: Enterococcus faecium, 3 h
E. coli = format: cell-based, Escherichia coli; conditions: 50 μM final drug concentration; for fold induction at 50 µM: Escherichia coli, 3 h
[3] = planktonic, cutoff for positive 3-fold increase, read-out: AK-based Prestwick Library Screening Results, K. pneumoniae (fold increase in extracellular AK activity)
[4] = planktonic, cutoff for positive 3-fold increase, read-out: AK-based Prestwick Library Screening Results, P. aeruginosa (fold increase in extracellular AK activity)
[5] = planktonic, cutoff for positive 3-fold increase, read-out: AK-based Prestwick Library Screening Results, A. baumannii (fold increase in extracellular AK activity)
[6] = planktonic, cutoff for positive 3-fold increase, read-out: AK-based Prestwick Library Screening Results, E. cloacae (fold increase in extracellular AK activity)
[7] = planktonic, cutoff for positive 3-fold increase, read-out: AK-based Prestwick Library Screening Results, S. aureus (fold increase in extracellular AK activity)
[8] = planktonic, cutoff for positive 3-fold increase, read-out: AK-based Prestwick Library Screening Results, E. faecium (fold increase in extracellular AK activity)
[9] = planktonic, cutoff for positive 3-fold increase, read-out: AK-based Prestwick Library Screening Results, E. coli (fold increase in extracellular AK activity)
[10] = 384-well format, cutoff for positive-scoring molecules 3-fold increase
[11] = cutoff for positive-scoring molecules 3-fold increase, read-out: AK-based Prestwick Library Screening Results, K. pneumoniae (fold increase in extracellular AK activity)
[12] = cutoff for positive-scoring molecules 3-fold increase, read-out: AK-based Prestwick Library Screening Results, P. aeruginosa (fold increase in extracellular AK activity)
[13] = cutoff for positive-scoring molecules 3-fold increase, read-out: AK-based Prestwick Library Screening Results, A. baumannii (fold increase in extracellular AK activity)
[14] = cutoff for positive-scoring molecules 3-fold increase, read-out: AK-based Prestwick Library Screening Results, E. cloacae (fold increase in extracellular AK activity)
[15] = cutoff for positive-scoring molecules 3-fold increase, read-out: AK-based Prestwick Library Screening Results, S. aureus (fold increase in extracellular AK activity)
[16] = cutoff for positive-scoring molecules 3-fold increase, read-out: AK-based Prestwick Library Screening Results, E. faecium (fold increase in extracellular AK activity)
[17] = cutoff for positive-scoring molecules 3-fold increase, read-out: AK-based Prestwick Library Screening Results, E. coli (fold increase in extracellular AK activity)

COc1c(C)c2c(c(O)c1C/C=C(\C)CCC(=O)O)C(=O)OC2 [Mycophenolic acid]
fold induction at 50 µM (K. pneumoniae; [3]): 1.5
fold induction at 50 µM (P. aeruginosa; [4]): 1.2
fold induction at 50 µM [1, 5]: 1.2
fold induction at 50 µM (E. cloacae; [6]): 1.3
fold induction at 50 µM [2, 7]: 1.1
fold induction at 50 µM (E. faecium; [8]): 1.1
fold induction at 50 µM (E. coli; [9]): 1.2

Nc1nc(O)c2[nH]nnc2n1 [Azaguanine-8]
AK-based Prestwick Library Screening Results, K. pneumoniae (increase in extracellular AK activity) (K. pneumoniae; [10]): 0.3
AK-based Prestwick Library Screening Results, P. aeruginosa (increase in extracellular AK activity) (P. aeruginosa; [10]): 0.3
AK-based Prestwick Library Screening Results, A. baumannii (increase in extracellular AK activity) [1, 10]: 0.3
AK-based Prestwick Library Screening Results, E. cloacae (increase in extracellular AK activity) (E. cloacae; [10]): 0.3
AK-based Prestwick Library Screening Results, S. aureus (increase in extracellular AK activity) [2, 10]: 0.6
AK-based Prestwick Library Screening Results, E. faecium (increase in extracellular AK activity) (E. faecium; [10]): 0.8
AK-based Prestwick Library Screening Results, E. coli (increase in extracellular AK activity) (E. coli; [10]): 0.4

NS(=O)(=O)c1cc2c(cc1C(F)(F)F)NC(Cc1ccccc1)NS2(=O)=O (centres unmarked) [Bendroflumethiazide]
fold induction at 50 µM (K. pneumoniae; [11]): 1.1
fold induction at 50 µM (P. aeruginosa; [12]): 1.1
fold induction at 50 µM [1, 13]: 1.3
fold induction at 50 µM (E. cloacae; [14]): 1.5
fold induction at 50 µM [2, 15]: 1.3
fold induction at 50 µM (E. faecium; [16]): 1.2
fold induction at 50 µM (E. coli; [17]): 1.3

CCOc1ccc(NC(C)=O)cc1 [Phenacetin]
fold induction at 50 µM (K. pneumoniae; [3]): 0.9
fold induction at 50 µM (P. aeruginosa; [4]): 0.9
fold induction at 50 µM [1, 5]: 1.1
fold induction at 50 µM (E. cloacae; [6]): 1.4
fold induction at 50 µM [2, 7]: 0.8
fold induction at 50 µM (E. faecium; [8]): 0.9
fold induction at 50 µM (E. coli; [9]): 1.2

C[C@@H]1O[C@@H](O[C@H]2[C@H](Oc3cc(O)c4c(c3)O[C@H](c3ccc(O)cc3)CC4=O)O[C@H](CO)[C@@H](O)[C@@H]2O)[C@H](O)[C@H](O)[C@H]1O [Naringin hydrate]
fold induction at 50 µM (K. pneumoniae; [3]): 0.9
fold induction at 50 µM (P. aeruginosa; [4]): 1.3
fold induction at 50 µM [1, 5]: 1.2
fold induction at 50 µM (E. cloacae; [6]): 1.2
fold induction at 50 µM [2, 7]: 1.2
fold induction at 50 µM (E. faecium; [8]): 1
fold induction at 50 µM (E. coli; [9]): 1.3

OCCN1CCN(CCCN2c3ccccc3Sc3ccc(Cl)cc32)CC1 [Perphenazine]
fold induction at 50 µM (K. pneumoniae; 384-well format, cutoff for positive-scoring molecules 3-fold increase, read-out: AK-based Prestwick Library Screening Results, K. pneumoniae (increase in extracellular AK activity)): 1.3
fold induction at 50 µM (P. aeruginosa; 384-well format, cutoff for positive-scoring molecules 3-fold increase, read-out: AK-based Prestwick Library Screening Results, P. aeruginosa (increase in extracellular AK activity)): 1.1
fold induction at 50 µM ([1]; 384-well format, cutoff for positive-scoring molecules 3-fold increase, read-out: AK-based Prestwick Library Screening Results, A. baumannii (increase in extracellular AK activity)): 1.6
fold induction at 50 µM (E. cloacae; 384-well format, cutoff for positive-scoring molecules 3-fold increase, read-out: AK-based Prestwick Library Screening Results, E. cloacae (increase in extracellular AK activity)): 1.4
fold induction at 50 µM ([2]; 384-well format, cutoff for positive-scoring molecules 3-fold increase, read-out: AK-based Prestwick Library Screening Results, S. aureus (increase in extracellular AK activity)): 0.9
fold induction at 50 µM (E. faecium; 384-well format, cutoff for positive-scoring molecules 3-fold increase, read-out: AK-based Prestwick Library Screening Results, E. faecium (increase in extracellular AK activity)): 1.2
fold induction at 50 µM (E. coli; 384-well format, cutoff for positive-scoring molecules 3-fold increase, read-out: AK-based Prestwick Library Screening Results, E. coli (increase in extracellular AK activity)): 1.5

CC(=O)OCC(=O)[C@@]1(O)CC[C@H]2[C@@H]3CCC4=CC(=O)CC[C@]4(C)[C@@]3(F)[C@@H](O)C[C@@]21C [Fludrocortisone acetate]
fold induction at 50 µM (K. pneumoniae; planktonic K. pneumoniae, 384-well, cutoff for positive-scoring molecules 3-fold increase, read-out: AK-based Prestwick Library Screening Results: K. pneumoniae (increase in extracellular AK activity)): 1
fold induction at 50 µM (P. aeruginosa; planktonic P. aeruginosa, 384-well, cutoff for positive-scoring molecules 3-fold increase, read-out: AK-based Prestwick Library Screening Results: P. aeruginosa (increase in extracellular AK activity)): 1.2
fold induction at 50 µM ([1]; planktonic A. baumannii, 384-well, cutoff for positive-scoring molecules 3-fold increase, read-out: AK-based Prestwick Library Screening Results: A. baumannii (increase in extracellular AK activity)): 1.2
fold induction at 50 µM (E. cloacae; planktonic E. cloacae, 384-well, cutoff for positive-scoring molecules 3-fold increase, read-out: AK-based Prestwick Library Screening Results: E. cloacae (increase in extracellular AK activity)): 1.4
fold induction at 50 µM ([2]; planktonic S. aureus, 384-well, cutoff for positive-scoring molecules 3-fold increase, read-out: AK-based Prestwick Library Screening Results: S. aureus (increase in extracellular AK activity)): 1
fold induction at 50 µM (E. faecium; planktonic E. faecium, 384-well, cutoff for positive-scoring molecules 3-fold increase, read-out: AK-based Prestwick Library Screening Results: E. faecium (increase in extracellular AK activity)): 1.1
fold induction at 50 µM (E. coli; planktonic E. coli, 384-well, cutoff for positive-scoring molecules 3-fold increase, read-out: AK-based Prestwick Library Screening Results: E. coli (increase in extracellular AK activity)): 1.3

C[C@]1(OC(=O)/C=C/c2ccccc2)C[C@@H](O)[C@]2(O)C=CO[C@@H](O[C@@H]3O[C@H](CO)[C@@H](O)[C@H](O)[C@H]3O)[C@@H]21 [Harpagoside]
fold induction at 50 µM (K. pneumoniae; planktonic K. pneumoniae, positive cutoff 3-fold increase, read-out: AK-based Prestwick library screening result, K. pneumoniae (fold increase in extracellular AK activity)): 0.7
fold induction at 50 µM (P. aeruginosa; planktonic P. aeruginosa, positive cutoff 3-fold increase, read-out: AK-based Prestwick library screening result, P. aeruginosa (fold increase in extracellular AK activity)): 0.8
fold induction at 50 µM ([1]; planktonic A. baumannii, positive cutoff 3-fold increase, read-out: AK-based Prestwick library screening result, A. baumannii (fold increase in extracellular AK activity)): 0.9
fold induction at 50 µM (E. cloacae; planktonic E. cloacae, positive cutoff 3-fold increase, read-out: AK-based Prestwick library screening result, E. cloacae (fold increase in extracellular AK activity)): 0.9
fold induction at 50 µM ([2]; planktonic S. aureus, positive cutoff 3-fold increase, read-out: AK-based Prestwick library screening result, S. aureus (fold increase in extracellular AK activity)): 0.8
fold induction at 50 µM (E. faecium; planktonic E. faecium, positive cutoff 3-fold increase, read-out: AK-based Prestwick library screening result, E. faecium (fold increase in extracellular AK activity)): 0.9
fold induction at 50 µM (E. coli; planktonic E. coli, positive cutoff 3-fold increase, read-out: AK-based Prestwick library screening result, E. coli (fold increase in extracellular AK activity)): 0.8

CN1CCCCC1CCN1c2ccccc2Sc2ccc([S+](C)[O-])cc21 (centres unmarked) [Mesoridazine besylate]
fold induction at 50 µM (K. pneumoniae; [3]): 1
fold induction at 50 µM (P. aeruginosa; [4]): 1.2
fold induction at 50 µM [1, 5]: 1
fold induction at 50 µM (E. cloacae; [6]): 1.3
fold induction at 50 µM [2, 7]: 1.3
fold induction at 50 µM (E. faecium; [8]): 1.1
fold induction at 50 µM (E. coli; [9]): 1.1

c1ccc2c(c1)CCCC2C1=NCCN1 (centres unmarked) [Tetrahydrozoline hydrochloride]
fold induction at 50 µM (K. pneumoniae; [11]): 0.9
fold induction at 50 µM (P. aeruginosa; [12]): 1
fold induction at 50 µM [1, 13]: 1
fold induction at 50 µM (E. cloacae; [14]): 1.4
fold induction at 50 µM [2, 15]: 1.1
fold induction at 50 µM (E. faecium; [16]): 1
fold induction at 50 µM (E. coli; [17]): 1.4

COc1cc(N)c(Cl)cc1C(=O)NC1CCN(Cc2ccccc2)CC1 [Clebopride maleate]
fold induction at 50 µM (K. pneumoniae; [3]): 1
fold induction at 50 µM (P. aeruginosa; [4]): 0.9
fold induction at 50 µM [1, 5]: 1
fold induction at 50 µM (E. cloacae; [6]): 1.6
fold induction at 50 µM [2, 7]: 1.2
fold induction at 50 µM (E. faecium; [8]): 1.1
fold induction at 50 µM (E. coli; [9]): 1
